Results reported in patent US12213958B2, “Compositions, methods, systems and/or kits for preventing and/or treating neoplasms” (Research Cancer Institute of America, priority 2017, dated 2025).

Columns and labels:
[1] = cited from earlier work
glioma cells = settings: cited from earlier work
OVCAR 3 Cancer cells = assay: Nanoformulated quercetin in mice with implanted tumor; settings: mouse, in vivo
Method: Animals—Immunodeficient, female athymic mice aged 5-6 weeks and weighing between 18 and 20 g were purchased from Taconic Biosciences (Albany, NY). All animal studies were conducted at the animal facility of the Veteran Affairs Medical Center, Albany, NY in accordance with and approved by institutional guidelines for humane animal treatment and according to the current guidelines. Mice were maintained under specific pathogen-free conditions and housed under controlled conditions of temperature (20-24° C.) and humidity (60-70%) and 12 h light/dark cycle with ad libitum access to water and food. Mice were allowed to acclimatize for 5 d prior to the start of study.
Treatment—OVCAR 3 Cancer cells (1×10^6) were implanted subcutaneously in right flank of each animal. In the first set of experiments, control, free Quercetin (3 mg/kg), NPS-quercetin(3 mg/kg), and FA-NPs-quercetin (3 mg/kg) were injected subcutaneously to the mice everyday (for 14 days). The control was PBS, after humane sacrifice of animals at 14 days, tumors were harvested and amount of QC was measured.

In the case of `O=c1c(O)c(-c2ccc(O)c(O)c2)oc2cc(O)cc(O)c12` [Quercetin, quercetin], the water solubility [1] is given as “not water soluble” and the angiogenesis (glioma cells) is given as “suppression of angiogenesis”.
For `O=c1c(O)c(-c2ccc(O)c(O)c2)oc2cc(O)cc(O)c12` [Free QC, quercetin], the “adverse toxic effect on the health of tumor bearing mice” value (OVCAR 3 Cancer cells) was “does not have any adverse toxic effect”.
